Reference: the supplement of paper PMC10627819

Experiments:
S. pneumoniae D39V [1] = assay: fitness (endpoint OD595 vs no drug) (fraction); higher = more growth
Summary of the method: (§1)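 At 37 °C, bacteria in TSB, LB Lennox or CY were grown in 384-well plates from a starting OD595 of 0.01. OD595 was measured every 30 min for 14 h, with the first reading used as background. Fitness is the optical density at the switch to stationary phase as a fraction of the robust mean of no-drug control wells, capped at 1.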

S. aureus Newman [2] = assay: as above
Summary of the method: as §1

S. aureus DSM 20231 [3] = assay: as above
Summary of the method: as §1

B. subtilis 168 [4] = assay: as above
Summary of the method: as §1

S. pneumoniae D39V [5] = assay: Bliss interaction score (quartile over a dose matrix) (fitness difference); higher = more antagonism (negative = synergy)
Summary of the method: (§2)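 Quartiles summarise the Bliss score over technical, biological and donor/recipient replicates, where the score is observed minus expected fitness under a product model. Expected fitness uses single-drug values inferred from combination data. Fitness is OD595 at entry into stationary phase over the plate's robust no-drug mean, capped at 1.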

S. aureus Newman [6] = assay: as above
Summary of the method: as §2

S. aureus DSM 20231 [7] = assay: as above
Summary of the method: as §2

B. subtilis 168 [8] = assay: as above
Summary of the method: as §2

[9] = first compound 0.0156 µg/mL, partner 0.0625 µg/mL
[10] = first compound 0.0156 µg/mL, partner 0.125 µg/mL
[11] = first compound 0.0156 µg/mL, partner 0.25 µg/mL
[12] = first compound 0.0156 µg/mL, partner 0.5 µg/mL, one replicate
[13] = first compound 0.0156 µg/mL, partner 1 µg/mL, one replicate
[14] = first compound 0.0312 µg/mL, partner 0.0625 µg/mL
[15] = first compound 0.0312 µg/mL, partner 0.125 µg/mL
[16] = first compound 0.0312 µg/mL, partner 0.25 µg/mL
[17] = first compound 0.0312 µg/mL, partner 0.5 µg/mL, one replicate
[18] = first compound 0.0312 µg/mL, partner 1 µg/mL, one replicate
[19] = first compound 0.0625 µg/mL, partner 0.0625 µg/mL
[20] = first compound 0.0625 µg/mL, partner 0.125 µg/mL
[21] = first compound 0.0625 µg/mL, partner 0.25 µg/mL
[22] = first compound 0.0625 µg/mL, partner 0.5 µg/mL, one replicate
[23] = first compound 0.0625 µg/mL, partner 1 µg/mL, one replicate
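Throughout, for Bliss interaction score (quartile over a dose matrix): first quartile when negative (synergy) and third quartile when positive (antagonism).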

How did the fitness (S. pneumoniae D39V [1]; first compound 0.01 µg/mL, partner 0.15 µg/mL, one replicate) turn out when `Cc1onc(-c2ccccc2)c1C(=O)N[C@@H]1C(=O)N2[C@@H]1SC(C)(C)[C@@H]2C(=O)O` [Oxacillin] + CC1=C\[C@@H](O)CC(=O)Cc2nc(co2)C(=O)N2CCC=C2C(=O)O[C@H](C(C)C)[C@H](C)/C=C/C(=O)NC\C=C\1 [Virginiamycin M1] was run?
The fitness was no less than 1.

What about the fitness (S. pneumoniae D39V [1]; first compound 0.01 µg/mL, partner 0.3 µg/mL, one replicate) of the same molecule?
The fitness was no less than 1.

What about the fitness (S. pneumoniae D39V [1]; first compound 0.01 µg/mL, partner 0.5 µg/mL) of the same molecule?
Its fitness is 0.986.

And the fitness (S. pneumoniae D39V [1]; first compound 0.01 µg/mL, partner 1 µg/mL)?
The fitness was 0.98.

And the fitness (S. pneumoniae D39V [1]; first compound 0.01 µg/mL, partner 2 µg/mL)?
The fitness was 0.961.

What about the fitness (S. pneumoniae D39V [1]; first compound 0.02 µg/mL, partner 0.15 µg/mL, one replicate) of the same molecule?
The fitness was no less than 1.

And the fitness (S. pneumoniae D39V [1]; first compound 0.02 µg/mL, partner 0.3 µg/mL, one replicate)?
Its fitness is no less than 1.

What about the fitness (S. pneumoniae D39V [1]; first compound 0.02 µg/mL, partner 0.5 µg/mL) of the same molecule?
Its fitness is 0.964.

And the fitness (S. pneumoniae D39V [1]; first compound 0.02 µg/mL, partner 1 µg/mL)?
Its fitness is 0.965.

What about the fitness (S. pneumoniae D39V [1]; first compound 0.02 µg/mL, partner 2 µg/mL) of the same molecule?
The fitness was 0.913.

And the fitness (S. pneumoniae D39V [1]; first compound 0.04 µg/mL, partner 0.15 µg/mL, one replicate)?
Its fitness is 0.994.

What about the fitness (S. pneumoniae D39V [1]; first compound 0.04 µg/mL, partner 0.3 µg/mL, one replicate) of the same molecule?
Its fitness is 0.989.

And the fitness (S. pneumoniae D39V [1]; first compound 0.04 µg/mL, partner 0.5 µg/mL)?
The fitness was 0.539.

What about the fitness (S. pneumoniae D39V [1]; first compound 0.04 µg/mL, partner 1 µg/mL) of the same molecule?
Its fitness is 0.568.

And the fitness (S. aureus Newman [2]; [9])?
Its fitness is 0.755.

And the fitness (S. aureus Newman [2]; [10])?
Its fitness is 0.761.

What about the fitness (S. aureus Newman [2]; [11]) of the same molecule?
The fitness was 0.763.

And the fitness (S. aureus Newman [2]; [12])?
The fitness was 0.815.

And the fitness (S. aureus Newman [2]; [13])?
The fitness was 0.882.

And the fitness (S. aureus Newman [2]; first compound 0.0156 µg/mL, partner 2 µg/mL, one replicate)?
Its fitness is 0.843.

What about the fitness (S. aureus Newman [2]; [14]) of the same molecule?
Its fitness is 0.71.

What about the fitness (S. aureus Newman [2]; [15]) of the same molecule?
The fitness was 0.709.

What about the fitness (S. aureus Newman [2]; [16]) of the same molecule?
Its fitness is 0.694.

And the fitness (S. aureus Newman [2]; [17])?
Its fitness is 0.752.

And the fitness (S. aureus Newman [2]; [18])?
The fitness was 0.78.

And the fitness (S. aureus Newman [2]; first compound 0.0312 µg/mL, partner 2 µg/mL, one replicate)?
Its fitness is 0.723.

And the fitness (S. aureus Newman [2]; [19])?
The fitness was 0.622.

What about the fitness (S. aureus Newman [2]; [20]) of the same molecule?
The fitness was 0.623.

What about the fitness (S. aureus Newman [2]; [21]) of the same molecule?
The fitness was 0.643.

And the fitness (S. aureus Newman [2]; [22])?
Its fitness is 0.597.

What about the fitness (S. aureus Newman [2]; [23]) of the same molecule?
Its fitness is 0.671.

What about the fitness (S. aureus Newman [2]; first compound 0.0625 µg/mL, partner 2 µg/mL, one replicate) of the same molecule?
The fitness was 0.676.

And the fitness (S. aureus DSM 20231 [3]; [9])?
Its fitness is 0.803.

What about the fitness (S. aureus DSM 20231 [3]; [10]) of the same molecule?
The fitness was 0.808.

And the fitness (S. aureus DSM 20231 [3]; [11])?
The fitness was 0.775.

What about the fitness (S. aureus DSM 20231 [3]; [12]) of the same molecule?
The fitness was 0.835.

What about the fitness (S. aureus DSM 20231 [3]; [13]) of the same molecule?
Its fitness is 0.903.

What about the fitness (S. aureus DSM 20231 [3]; [14]) of the same molecule?
The fitness was 0.61.

And the fitness (S. aureus DSM 20231 [3]; [15])?
The fitness was 0.686.

And the fitness (S. aureus DSM 20231 [3]; [16])?
Its fitness is 0.628.

What about the fitness (S. aureus DSM 20231 [3]; [17]) of the same molecule?
Its fitness is 0.719.

And the fitness (S. aureus DSM 20231 [3]; [18])?
The fitness was 0.746.

And the fitness (S. aureus DSM 20231 [3]; [19])?
Its fitness is 0.492.

What about the fitness (S. aureus DSM 20231 [3]; [20]) of the same molecule?
Its fitness is 0.514.

And the fitness (S. aureus DSM 20231 [3]; [21])?
The fitness was 0.545.

What about the fitness (S. aureus DSM 20231 [3]; [22]) of the same molecule?
The fitness was 0.517.

And the fitness (S. aureus DSM 20231 [3]; [23])?
Its fitness is 0.64.

And the fitness (B. subtilis 168 [4]; first compound 0.002 µg/mL, partner 0.0625 µg/mL)?
The fitness was 0.993.

What about the fitness (B. subtilis 168 [4]; first compound 0.002 µg/mL, partner 0.125 µg/mL) of the same molecule?
The fitness was 0.954.

And the fitness (B. subtilis 168 [4]; first compound 0.002 µg/mL, partner 0.25 µg/mL)?
Its fitness is 0.977.

And the fitness (B. subtilis 168 [4]; first compound 0.004 µg/mL, partner 0.0625 µg/mL)?
The fitness was 0.98.

And the fitness (B. subtilis 168 [4]; first compound 0.004 µg/mL, partner 0.125 µg/mL)?
Its fitness is 0.941.

And the fitness (B. subtilis 168 [4]; first compound 0.004 µg/mL, partner 0.25 µg/mL)?
Its fitness is 0.973.

What about the fitness (B. subtilis 168 [4]; first compound 0.008 µg/mL, partner 0.0625 µg/mL) of the same molecule?
Its fitness is 0.962.

And the fitness (B. subtilis 168 [4]; first compound 0.008 µg/mL, partner 0.125 µg/mL)?
The fitness was 0.905.

What about the fitness (B. subtilis 168 [4]; first compound 0.008 µg/mL, partner 0.25 µg/mL) of the same molecule?
The fitness was 0.962.

What about the fitness (B. subtilis 168 [4]; first compound 0.075 µg/mL, partner 0.0625 µg/mL, one replicate) of the same molecule?
The fitness was 0.461.

And the fitness (B. subtilis 168 [4]; first compound 0.075 µg/mL, partner 0.125 µg/mL, one replicate)?
Its fitness is 0.639.

What about the fitness (B. subtilis 168 [4]; first compound 0.075 µg/mL, partner 0.25 µg/mL, one replicate) of the same molecule?
The fitness was 0.53.

What about the fitness (B. subtilis 168 [4]; first compound 0.15 µg/mL, partner 0.0625 µg/mL, one replicate) of the same molecule?
Its fitness is 0.0434.

What about the fitness (B. subtilis 168 [4]; first compound 0.15 µg/mL, partner 0.125 µg/mL, one replicate) of the same molecule?
The fitness was 0.0511.

What about the fitness (B. subtilis 168 [4]; first compound 0.15 µg/mL, partner 0.25 µg/mL, one replicate) of the same molecule?
The fitness was 0.0511.

And the fitness (B. subtilis 168 [4]; first compound 0.3 µg/mL, partner 0.0625 µg/mL, one replicate)?
The fitness was 0.04.

What about the fitness (B. subtilis 168 [4]; first compound 0.3 µg/mL, partner 0.125 µg/mL, one replicate) of the same molecule?
The fitness was 0.0604.

And the fitness (B. subtilis 168 [4]; first compound 0.3 µg/mL, partner 0.25 µg/mL, one replicate)?
Its fitness is 0.0635.

And the Bliss interaction score (S. pneumoniae D39V [5])?
Its Bliss interaction score is 0.114.

And the Bliss interaction score (S. aureus Newman [6])?
The Bliss interaction score was 0.0583.

And the Bliss interaction score (S. aureus DSM 20231 [7])?
Its Bliss interaction score is -0.0341.

And the Bliss interaction score (B. subtilis 168 [8])?
The Bliss interaction score was 0.0548.
